# Columns and labels:
# Test in all cases: relative viability (nuclei count vs DMSO), 5 days (fraction); higher = more cells survive
# [1] = test system: A549
# How it was run: (§1)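 Lung cancer cell lines in 1536-well plates were dosed by pin tool the day after seeding, either with one drug alone or with a fixed anchor-drug dose plus five library-drug doses (not always all listed) in √10 steps. After 5 days, cells were fixed and their nuclei stained in one step (final 0.05% Triton X-100, 1% formaldehyde, 1 ug/ml Hoechst), then counted on 4× images. Relative viability is the nuclei count in treated wells divided by that in vehicle wells. Values are medians of duplicate plates.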
# [2] = test system: Calu-6
# How it was run: as §1
# [3] = test system: EBC-1
# How it was run: as §1
# [4] = test system: IA-LM
# How it was run: as §1
# [5] = test system: NCI-H1299
# How it was run: as §1
# [6] = test system: NCI-H1355
# How it was run: as §1
# [7] = test system: NCI-H1703
# How it was run: as §1
smiles,measurement,setting,value
COc1cc(N2CCC(C(N)=O)CC2)ccc1Nc1nc(N)c(Cl)c(Nc2ccccc2S(=O)(=O)C(C)C)n1 [HG-5-88-01] + CS(=O)(=O)CCNCc1ccc(-c2ccc3ncnc(Nc4ccc(OCc5cccc(F)c5)c(Cl)c4)c3c2)o1 [Lapatinib] (partner 2 µM),relative viability,[1]; first compound 0.04 µM,0.984
same,relative viability,[1]; first compound 0.1265 µM,0.917
same,relative viability,[1]; first compound 0.4 µM,0.845
same,relative viability,[1]; first compound 1.265 µM,0.573
same,relative viability,[1]; first compound 4 µM,0.411
same,relative viability,[2]; first compound 0.04 µM,1.11
same,relative viability,[2]; first compound 0.1265 µM,1.05
same,relative viability,[2]; first compound 0.4 µM,1.19
same,relative viability,[2]; first compound 1.265 µM,1.04
same,relative viability,[2]; first compound 4 µM,0.774
same,relative viability,[3]; first compound 0.04 µM,0.221
same,relative viability,[3]; first compound 0.1265 µM,0.22
same,relative viability,[3]; first compound 0.4 µM,0.209
same,relative viability,[3]; first compound 1.265 µM,0.21
same,relative viability,[3]; first compound 4 µM,0.195
same,relative viability,[4]; first compound 0.04 µM,0.891
same,relative viability,[4]; first compound 0.1265 µM,0.864
same,relative viability,[4]; first compound 0.4 µM,0.721
same,relative viability,[4]; first compound 1.265 µM,0.712
same,relative viability,[4]; first compound 4 µM,0.404
same,relative viability,[5]; first compound 0.04 µM,0.914
same,relative viability,[5]; first compound 0.1265 µM,0.983
same,relative viability,[5]; first compound 0.4 µM,0.87
same,relative viability,[5]; first compound 1.265 µM,1.05
same,relative viability,[5]; first compound 4 µM,0.963
same,relative viability,[6]; first compound 0.04 µM,1.08
same,relative viability,[6]; first compound 0.1265 µM,1.04
same,relative viability,[6]; first compound 0.4 µM,0.832
same,relative viability,[6]; first compound 1.265 µM,0.917
same,relative viability,[6]; first compound 4 µM,0.623
same,relative viability,[7]; first compound 0.04 µM,0.832
same,relative viability,[7]; first compound 0.1265 µM,1.15
same,relative viability,[7]; first compound 0.4 µM,1.22
same,relative viability,[7]; first compound 1.265 µM,1.08
same,relative viability,[7]; first compound 4 µM,0.619
CC(C)Oc1cc(Nc2nc(N[C@@H](C)c3ccc(F)cn3)ncc2Cl)n[nH]1 [AZ23] + CS(=O)(=O)CCNCc1ccc(-c2ccc3ncnc(Nc4ccc(OCc5cccc(F)c5)c(Cl)c4)c3c2)o1 [Lapatinib] (partner 2 µM),relative viability,[1]; first compound 0.01 µM,1.16
same,relative viability,[1]; first compound 0.03162 µM,0.945
same,relative viability,[1]; first compound 0.3162 µM,1.02
same,relative viability,[2]; first compound 0.03162 µM,1.25
same,relative viability,[2]; first compound 0.3162 µM,1.08
same,relative viability,[3]; first compound 0.03162 µM,0.234
same,relative viability,[3]; first compound 0.3162 µM,0.194
same,relative viability,[4]; first compound 0.01 µM,0.872
same,relative viability,[4]; first compound 0.03162 µM,1.37
same,relative viability,[4]; first compound 0.3162 µM,0.871
same,relative viability,[5]; first compound 0.01 µM,0.977
same,relative viability,[5]; first compound 0.03162 µM,1.08
same,relative viability,[5]; first compound 0.3162 µM,1.03
same,relative viability,[6]; first compound 0.01 µM,1.16
same,relative viability,[6]; first compound 0.03162 µM,1.07
same,relative viability,[6]; first compound 0.3162 µM,0.939
same,relative viability,[7]; first compound 0.01 µM,0.939
same,relative viability,[7]; first compound 0.03162 µM,1.16
same,relative viability,[7]; first compound 0.3162 µM,1.3

# Reference: the supplement of paper PMC10307832
